From patent publication US10442815B2, “Tricyclic heterocyclic compounds as phosphoinositide 3-kinase inhibitors” (Karus Therapeutics Limited, priority 2015, dated 2019) come the findings set out here.

Usually pIC50 stands for the IC50 on a negative log10 scale, so that one unit is a factor of ten. Lower therefore signals a large IC50. For orientation: pKi means the negative decadic logarithm of the Ki, by convention in mol/L. Read a high pKi as a small Ki. As a reminder, the AUC(0-inf) is total exposure, with the tail of the curve extrapolated. The Cmax is the maximum level reached in the sampled fluid or tissue. As usually defined, the half-life is how long it takes for the measured level to halve. In general, AUC(0-t) refers to exposure summed from dosing to a finite time, without extrapolation to infinity. Usually Tmax stands for the time at which the peak concentration occurs. The bioavailability is the share of a dose that reaches the circulation, judged against a reference dose that is usually intravenous.

For data set [1], the target named is T1, PI3K p110δ (Homo sapiens, UniProt O00329).
T1 construct: assay run at Proqinase GmbH
Put plainly: IC50 determination, HTRF biochemical assay (Reaction Biology Corp.). The text has this: (§1) Biochemical activity against class I PI3K isoforms was confirmed by either Ki determination using the non-radiometric ADP-Glo™ assay (Promega, Madison, Wis., USA) at Proqinase GmbH, or IC50 determination using the HTRF biochemical assay at Reaction Biology Corp.

Data set [2] concerns the target T2, PI3K p110α (Homo sapiens, UniProt P42336).
T2 construct: assay run at Proqinase GmbH
The data set is described as above.
Description: as §1

Data set [3] concerns the target T3, PI3K p110β (Homo sapiens, UniProt P42338).
T3 construct: assay run at Proqinase GmbH
The description is as above.
Description: as §1

The target in data set [4] is T4, PI3K p110γ (Homo sapiens, UniProt P48736).
T4 construct: assay run at Proqinase GmbH
Described as above.
Description: as §1

Data set [5] deals with T1, PI3K p110δ. Briefly: Ki determination, non-radiometric ADP-Glo assay (Proqinase GmbH). It counts as biochemical.
Description: as §1
In general terms: ADP-Glo first removes unused ATP, then detects ADP through luciferase.

In data set [6] the target is T2, PI3K p110α. The data set is described as above. It counts as biochemical.
Description: as §1

Data set [7] concerns the target T3, PI3K p110β. The description is as above. In kind it is biochemical.
Description: as §1

For data set [8], the target named is T4, PI3K p110γ. Described as above. In kind it is biochemical.
Description: as §1

A short description of data set [9]: Plasma PK of Example B, oral bioavailability and clearance in male Balb/c mice. It counts as in vivo, mouse. The following applies: Mesylate Salt. The procedure: Animals in Group 2 were administered with oral solution formulation of Example B in 5% NMP, 5% Solutol HS and 90% of 20% HPβCD at a dose of 10 mg/kg. Dosing: 10 mg/kg P.O. and 3 mg/kg I.V.
A short description of data set [10]: Plasma PK of compound K of WO 2011/021038 in male Balb/c mice. Conditions: for F: PO 10 mg/kg vs IV 3 mg/kg, male Balb/c mouse. It counts as in vivo, mouse. The procedure: Animals in Group 1 were administered intravenously with compound K solution formulation in 5% NMP, 5% solutol HS-15 and 90% normal saline via tail vein at a dose of 3 mg/kg.
Animals in Group 2 were administered with oral solution formulation of compound K in 5% NMP, 5% solutol HS-15 and 90% normal saline at a dose of 10 mg/kg;
Dosing: 10 mg/kg P.O. and 3 mg/kg I.V.

The mark [11] stands for this setting: IV, 3 mg/kg, male Balb/c mouse plasma.
Setting [12] is: IV, 3 mg/kg, male Balb/c mouse plasma, read-out: Vss.
The mark [13] stands for this setting: PO, 10 mg/kg, male Balb/c mouse plasma.

Molecules are shown by their SMILES. pIC50, pKi: −log10 of the molar value.

T1 sequence (O00329 whole entry): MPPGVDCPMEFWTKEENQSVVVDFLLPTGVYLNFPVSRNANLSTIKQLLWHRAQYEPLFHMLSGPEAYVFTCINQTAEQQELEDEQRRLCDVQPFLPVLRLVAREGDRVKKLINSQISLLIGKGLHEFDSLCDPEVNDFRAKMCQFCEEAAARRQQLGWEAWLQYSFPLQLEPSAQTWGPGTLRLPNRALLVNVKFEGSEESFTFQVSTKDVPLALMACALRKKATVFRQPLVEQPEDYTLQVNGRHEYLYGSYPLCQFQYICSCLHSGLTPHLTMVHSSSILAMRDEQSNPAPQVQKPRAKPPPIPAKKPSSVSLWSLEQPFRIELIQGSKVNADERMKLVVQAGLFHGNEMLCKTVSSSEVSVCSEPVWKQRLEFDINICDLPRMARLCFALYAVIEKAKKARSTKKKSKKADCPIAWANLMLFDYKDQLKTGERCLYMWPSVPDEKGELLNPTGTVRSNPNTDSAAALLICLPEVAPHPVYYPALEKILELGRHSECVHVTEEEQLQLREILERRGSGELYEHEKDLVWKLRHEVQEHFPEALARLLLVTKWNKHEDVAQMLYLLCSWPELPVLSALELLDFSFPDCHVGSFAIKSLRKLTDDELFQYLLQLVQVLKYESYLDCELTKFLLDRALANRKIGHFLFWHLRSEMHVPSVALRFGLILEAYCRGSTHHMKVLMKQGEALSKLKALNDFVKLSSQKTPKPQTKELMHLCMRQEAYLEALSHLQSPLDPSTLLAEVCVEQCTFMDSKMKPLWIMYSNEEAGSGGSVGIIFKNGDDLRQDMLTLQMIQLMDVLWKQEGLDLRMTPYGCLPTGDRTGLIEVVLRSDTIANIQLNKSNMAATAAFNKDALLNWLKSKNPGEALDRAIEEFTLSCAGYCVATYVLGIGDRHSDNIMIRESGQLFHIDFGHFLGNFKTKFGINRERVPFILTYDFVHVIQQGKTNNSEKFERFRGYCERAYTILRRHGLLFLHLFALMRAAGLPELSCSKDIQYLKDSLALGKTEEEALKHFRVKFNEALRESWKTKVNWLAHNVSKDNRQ
T1 sequence (P27986 whole entry partner): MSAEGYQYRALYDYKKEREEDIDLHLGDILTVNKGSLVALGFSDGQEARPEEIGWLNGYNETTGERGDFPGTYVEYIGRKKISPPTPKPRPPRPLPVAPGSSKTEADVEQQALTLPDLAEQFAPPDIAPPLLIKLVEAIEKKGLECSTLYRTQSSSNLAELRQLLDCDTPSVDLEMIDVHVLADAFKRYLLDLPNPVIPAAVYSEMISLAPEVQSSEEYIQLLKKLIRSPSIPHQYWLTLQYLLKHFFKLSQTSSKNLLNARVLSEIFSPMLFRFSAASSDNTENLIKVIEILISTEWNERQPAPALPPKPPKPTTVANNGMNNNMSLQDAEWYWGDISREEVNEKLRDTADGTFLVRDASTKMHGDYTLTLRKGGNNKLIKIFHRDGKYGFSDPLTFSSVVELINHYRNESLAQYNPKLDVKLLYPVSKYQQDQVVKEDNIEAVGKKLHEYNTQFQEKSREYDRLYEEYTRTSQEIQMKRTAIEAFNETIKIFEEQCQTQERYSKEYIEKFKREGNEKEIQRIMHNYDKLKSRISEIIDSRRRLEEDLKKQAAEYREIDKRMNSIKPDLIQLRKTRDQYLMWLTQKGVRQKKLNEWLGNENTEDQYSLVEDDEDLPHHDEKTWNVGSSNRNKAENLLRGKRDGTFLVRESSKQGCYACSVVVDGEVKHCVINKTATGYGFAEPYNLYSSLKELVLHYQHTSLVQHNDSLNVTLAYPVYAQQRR
T4 sequence (P48736 whole entry): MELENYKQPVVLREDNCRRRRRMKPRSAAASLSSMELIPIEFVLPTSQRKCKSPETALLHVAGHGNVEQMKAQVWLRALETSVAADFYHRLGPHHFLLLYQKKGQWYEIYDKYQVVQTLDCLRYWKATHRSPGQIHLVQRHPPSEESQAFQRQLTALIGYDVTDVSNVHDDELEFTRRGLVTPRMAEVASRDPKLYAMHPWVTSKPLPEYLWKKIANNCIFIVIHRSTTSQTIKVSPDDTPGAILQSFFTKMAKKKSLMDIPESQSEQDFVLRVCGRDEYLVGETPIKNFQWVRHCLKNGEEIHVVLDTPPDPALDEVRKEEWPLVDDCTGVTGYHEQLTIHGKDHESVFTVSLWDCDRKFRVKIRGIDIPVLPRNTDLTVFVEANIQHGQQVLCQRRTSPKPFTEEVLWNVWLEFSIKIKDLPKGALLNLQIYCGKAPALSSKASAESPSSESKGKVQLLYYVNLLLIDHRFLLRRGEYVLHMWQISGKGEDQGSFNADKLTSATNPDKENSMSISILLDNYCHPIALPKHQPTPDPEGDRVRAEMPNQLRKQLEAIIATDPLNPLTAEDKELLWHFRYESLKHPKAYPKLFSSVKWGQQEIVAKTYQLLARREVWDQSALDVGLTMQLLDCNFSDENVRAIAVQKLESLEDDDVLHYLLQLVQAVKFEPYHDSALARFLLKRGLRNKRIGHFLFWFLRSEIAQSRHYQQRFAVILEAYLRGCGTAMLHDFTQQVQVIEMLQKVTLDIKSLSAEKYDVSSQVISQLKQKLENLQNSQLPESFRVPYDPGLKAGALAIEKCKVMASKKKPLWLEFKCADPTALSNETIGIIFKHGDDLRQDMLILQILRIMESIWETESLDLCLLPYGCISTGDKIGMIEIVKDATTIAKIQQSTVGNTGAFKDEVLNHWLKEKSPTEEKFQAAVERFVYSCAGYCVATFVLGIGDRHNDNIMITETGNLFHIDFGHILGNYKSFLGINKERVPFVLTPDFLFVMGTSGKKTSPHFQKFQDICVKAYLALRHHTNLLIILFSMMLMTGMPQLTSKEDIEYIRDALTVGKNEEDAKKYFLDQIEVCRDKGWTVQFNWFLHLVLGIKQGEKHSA
T2 sequence (P42336 whole entry): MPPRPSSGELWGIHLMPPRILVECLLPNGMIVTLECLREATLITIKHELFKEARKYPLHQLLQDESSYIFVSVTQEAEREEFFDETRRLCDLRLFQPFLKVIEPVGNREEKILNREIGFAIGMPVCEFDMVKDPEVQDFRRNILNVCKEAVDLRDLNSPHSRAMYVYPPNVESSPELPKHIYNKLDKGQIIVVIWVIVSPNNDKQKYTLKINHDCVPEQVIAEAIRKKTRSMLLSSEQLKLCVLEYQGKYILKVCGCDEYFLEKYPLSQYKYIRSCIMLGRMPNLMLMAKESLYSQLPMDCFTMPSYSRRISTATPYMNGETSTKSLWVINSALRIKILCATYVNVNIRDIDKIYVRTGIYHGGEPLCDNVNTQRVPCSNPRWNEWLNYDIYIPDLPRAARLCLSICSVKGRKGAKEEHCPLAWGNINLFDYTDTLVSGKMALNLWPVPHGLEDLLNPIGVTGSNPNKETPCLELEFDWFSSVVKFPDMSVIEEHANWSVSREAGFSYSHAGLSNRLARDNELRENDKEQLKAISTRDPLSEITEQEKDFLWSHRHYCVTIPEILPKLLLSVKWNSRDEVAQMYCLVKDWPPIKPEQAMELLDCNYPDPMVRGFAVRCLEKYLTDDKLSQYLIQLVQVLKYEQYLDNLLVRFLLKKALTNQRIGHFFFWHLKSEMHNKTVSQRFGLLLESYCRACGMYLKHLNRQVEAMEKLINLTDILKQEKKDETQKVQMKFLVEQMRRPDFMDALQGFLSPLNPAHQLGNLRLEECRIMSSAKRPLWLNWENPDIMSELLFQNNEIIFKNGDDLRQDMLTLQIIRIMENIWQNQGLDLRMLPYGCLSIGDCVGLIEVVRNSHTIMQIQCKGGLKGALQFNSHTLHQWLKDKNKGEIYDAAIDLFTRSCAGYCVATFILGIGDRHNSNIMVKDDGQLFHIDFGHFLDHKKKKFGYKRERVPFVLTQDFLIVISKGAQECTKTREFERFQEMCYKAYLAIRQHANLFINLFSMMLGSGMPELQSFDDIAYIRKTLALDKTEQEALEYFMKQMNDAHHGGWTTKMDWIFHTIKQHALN
T2 sequence (P27986 whole entry partner): as the sequence (P27986 whole entry partner) above
T3 sequence (P42338 whole entry): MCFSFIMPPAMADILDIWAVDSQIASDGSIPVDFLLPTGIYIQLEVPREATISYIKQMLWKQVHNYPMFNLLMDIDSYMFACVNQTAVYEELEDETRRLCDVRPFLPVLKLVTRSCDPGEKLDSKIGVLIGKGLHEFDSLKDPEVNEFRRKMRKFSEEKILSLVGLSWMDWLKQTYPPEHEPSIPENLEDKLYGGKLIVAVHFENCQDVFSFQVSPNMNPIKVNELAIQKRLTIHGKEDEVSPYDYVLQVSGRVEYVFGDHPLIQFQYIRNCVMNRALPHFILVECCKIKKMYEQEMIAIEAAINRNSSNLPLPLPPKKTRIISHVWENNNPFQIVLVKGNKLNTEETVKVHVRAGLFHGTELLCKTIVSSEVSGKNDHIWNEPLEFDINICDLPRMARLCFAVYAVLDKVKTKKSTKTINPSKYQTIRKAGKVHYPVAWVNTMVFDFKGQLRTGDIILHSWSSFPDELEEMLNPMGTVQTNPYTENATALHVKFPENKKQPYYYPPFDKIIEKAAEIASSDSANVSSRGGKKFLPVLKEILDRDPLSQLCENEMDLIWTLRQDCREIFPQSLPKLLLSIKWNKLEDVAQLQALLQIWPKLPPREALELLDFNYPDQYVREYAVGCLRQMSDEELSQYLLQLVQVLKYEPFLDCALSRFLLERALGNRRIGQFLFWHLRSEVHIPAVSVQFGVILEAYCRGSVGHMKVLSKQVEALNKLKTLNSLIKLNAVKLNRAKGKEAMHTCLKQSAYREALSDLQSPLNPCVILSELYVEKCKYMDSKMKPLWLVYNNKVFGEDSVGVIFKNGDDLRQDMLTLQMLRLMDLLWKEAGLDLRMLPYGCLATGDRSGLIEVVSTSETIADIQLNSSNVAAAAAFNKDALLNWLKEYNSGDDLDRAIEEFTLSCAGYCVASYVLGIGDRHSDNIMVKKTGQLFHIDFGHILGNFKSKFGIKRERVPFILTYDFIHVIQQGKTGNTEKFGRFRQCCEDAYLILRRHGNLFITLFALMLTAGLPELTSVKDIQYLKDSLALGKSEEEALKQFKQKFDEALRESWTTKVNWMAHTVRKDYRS
T3 sequence (P27986 whole entry partner): as the sequence (P27986 whole entry partner) above

Take `O=S1(=O)CCCN(Cc2cnc3oc4c(N5CCOCC5)nc(-c5cccc6[nH]ccc56)nc4c3c2)CC1` [Example AA, 4-{[4-(1H-indol-4-yl)-6-(morpholin-4-yl)-8-oxa-3,5,10-triazatricyclo[7.4.0.0^2,^7]trideca-1(13),2(7),3,5,9,11-hexaen-12-yl]methyl}-1λ^6,4-thiazepane-1,1-dione]: the pIC50 is at least 6.30 at PI3K p110δ [1], at least 6.30 against PI3K p110α [2], at least 6.30 at PI3K p110β [3] and 6.00 to 6.30 at PI3K p110γ [4].
As for `O=S1(=O)CC2(CN(Cc3cnc4oc5c(N6CCOCC6)nc(-c6cccc7[nH]ccc67)nc5c4c3)C2)C1` [Example AB, 6-{[4-(1H-Indol-4-yl)-6-(morpholin-4-yl)-8-oxa-3,5,10-triazatricyclo[7.4.0.0^2^,7]trideca-1(13),2(7),3,5,9,11-hexaen-12-yl]methyl}-2λ^6-thia-6-azaspiro[3.3]heptane-2,2-dione], the pIC50 against PI3K p110δ [1] was at least 6.30; against PI3K p110α [2], at least 6.30; on PI3K p110β [3], at least 6.30; at PI3K p110γ [4], 6.00 to 6.30.
In turn, `[O-][S+]1CCN(Cc2cnc3oc4c(N5CCOCC5)nc(-c5cccc6[nH]ccc56)nc4c3c2)CC1` [Example B, 4-{[4-(1H-Indol-4-yl)-6-(morpholin-4-yl)-8-oxa-3,5,10-triazatricyclo[7.4.0.0^2,7]trideca-1(13),2(7),3,5,9,11-hexaen-12-yl]methyl}-1λ^4-thiomorpholin-1-one] had a pKi on PI3K p110δ [5] of at least 6.30. On PI3K p110α [6], this compound had a pKi of 6.00 to 6.30. The same compound gave a pKi at PI3K p110β [7] of at least 6.30. In addition, the pKi at PI3K p110γ [8] was 5.00 to 6.00. In data set [9] (setting [11]), the AUC(0-inf) stood at 2.94 µg·h/mL, the AUClast was 2802.91 ng·mL·h, the Cmax amounted to 5.32 µg/mL and the clearance was 1.02 L/h/kg. Further, the half-life in [9] (setting [11]) was 206 min. In addition, the Vd in [9] (setting [12]) was 1.44 L/kg. Besides, in [9] (setting [13]), the AUC(0-inf) was determined as 7.7 µg·h/mL, the AUC(0-t) was 7.69 µg·h/mL, the Cmax came out at 3.83 µg/mL and the Tmax was 30 min. Besides, the bioavailability in data set [9] (plasma, PO 10 mg/kg vs IV 3 mg/kg, male Balb/c mouse) is 82%.
Turning to `[O-][S+]1CCN(Cc2cnc3oc4c(N5CCOCC5)nc(-c5cccc6c5CCN6)nc4c3c2)CC1` [Example O, 4-{[4-(2,3-Dihydro-1H-indol-4-yl)-6-(morpholin-4-yl)-8-oxa-3,5,10-triazatricyclo[7.4.0.0^2,7]trideca-1(13),2(7),3,5,9,11-hexaen-12-yl]methyl}-1λ^4-thiomorpholin-1-one], the pKi at PI3K p110δ [5] was at least 6.30; on PI3K p110α [6], under 5.00; on PI3K p110β [7], at least 6.30; at PI3K p110γ [8] it was under 5.00.
Turning to `Cc1ccc2[nH]ccc2c1-c1nc(N2CCOCC2)c2oc3ncc(CN4CC[S+]([O-])CC4)cc3c2n1` [Example P, 4-{[4-(5-Methyl-1H-indol-4-yl)-6-(morpholin-4-yl)-8-oxa-3,5,10-triazatricyclo[7.4.0.0^2,7]trideca-1(9),2,4,6,10,12-hexaen-12-yl]methyl}-1λ^4-thiomorpholin-1-one], the pKi on PI3K p110δ [5] is at least 6.30; on PI3K p110α [6], 5.00 to 6.00; at PI3K p110β [7] it was at least 6.30; on PI3K p110γ [8], 5.00 to 6.00.
As to `[O-][S+]1CCN(Cc2cnc3oc4c(N5CCOCC5)nc(-c5ccc(F)c6[nH]ccc56)nc4c3c2)CC1` [Example Q, 4-{[4-(7-Fluoro-1H-indol-4-yl)-6-(morpholin-4-yl)-8-oxa-3,5,10-triazatricyclo[7.4.0.0^2,7]trideca-1(13),2(7),3,5,9,11-hexaen-12-yl]methyl}-1λ^4-thiomorpholin-1-one], the pKi at PI3K p110δ [5] was at least 6.30; at PI3K p110α [6] it was under 5.00; on PI3K p110β [7] it was 5.00 to 6.00; on PI3K p110γ [8], under 5.00.
On to `N#Cc1cc(-c2nc(N3CCOCC3)c3oc4ncc(CN5CC[S+]([O-])CC5)cc4c3n2)c2cc[nH]c2c1` [Example R, 4-[6-(morpholin-4-yl)-12-[(1-oxo-1λ^4-thiomorpholin-4-yl)methyl]-8-oxa-3,5,10-triazatricyclo[7.4.0.0^2,^7]trideca-1(13),2(7),3,5,9,11-hexaen-4-yl]-1H-indole-6-carbonitrile], for which the pKi at PI3K p110δ [5], at PI3K p110α [6], on PI3K p110β [7] and on PI3K p110γ [8] was under 5.00 each time.
On to `[O-][S+]1CCN(Cc2cnc3oc4c(N5CCOCC5)nc(-c5c(Cl)ccc6[nH]ccc56)nc4c3c2)CC1` [Example T, 4-{[4-(5-Chloro-1H-indol-4-yl)-6-(morpholin-4-yl)-8-oxa-3,5,10-triazatricyclo[7.4.0.0^2,7]trideca-1(9),2,4,6,10,12-hexaen-12-yl]methyl}-1λ^4-thiomorpholin-1-one], for which the pKi is at least 6.30 on PI3K p110δ [5], 5.00 to 6.00 on PI3K p110α [6], at least 6.30 at PI3K p110β [7] and under 5.00 on PI3K p110γ [8].
Consider `[O-][S+]1CCN(Cc2cnc3oc4c(N5CCOCC5)nc(-c5c(Cl)ccc6c5CCN6)nc4c3c2)CC1` [Example U, 4-{[4-(5-Chloro-2,3-dihydro-1H-indol-4-yl)-6-(morpholin-4-yl)-8-oxa-3,5,10-triazatricyclo[7.4.0.0^2,7]trideca-1(9),2,4,6,10,12-hexaen-12-yl]methyl}-1λ^4-thiomorpholin-1-one], for which the pKi at PI3K p110δ [5] is at least 6.30; on PI3K p110α [6], under 5.00; on PI3K p110β [7], 5.00 to 6.00; on PI3K p110γ [8], under 5.00.
On to `Cc1ccc2c(c1-c1nc(N3CCOCC3)c3oc4ncc(CN5CC[S+]([O-])CC5)cc4c3n1)CCN2` [Example V, 4-{[4-(5-Methyl-2,3-dihydro-1H-indol-4-yl)-6-(morpholin-4-yl)-8-oxa-3,5,10-triazatricyclo[7.4.0.0^2,7]trideca-1(9),2,4,6,10,12-hexaen-12-yl]methyl}-1λ^4-thiomorpholin-1-one], for which the pKi on PI3K p110δ [5] was at least 6.30; on PI3K p110α [6], under 5.00; at PI3K p110β [7], 5.00 to 6.00; at PI3K p110γ [8] it was under 5.00.
Regarding `N#Cc1ccc2[nH]ccc2c1-c1nc(N2CCOCC2)c2oc3ncc(CN4CC[S+]([O-])CC4)cc3c2n1` [Example W, 4-[6-(morpholin-4-yl)-12-[(1-oxo-1λ^4-thiomorpholin-4-yl)methyl]-8-oxa-3,5,10-triazatricyclo[7.4.0.0^2,^7]trideca-1(9),2,4,6,10,12-hexaen-4-yl]-1H-indole-5-carbonitrile], the pKi on PI3K p110δ [5] is at least 6.30; at PI3K p110α [6], at least 6.30; at PI3K p110β [7], at least 6.30; at PI3K p110γ [8] it was under 5.00.
For `O=C(O)c1ccc2[nH]ccc2c1-c1nc(N2CCOCC2)c2oc3ncc(CN4CC[S+]([O-])CC4)cc3c2n1` [Example X, 4-[6-(morpholin-4-yl)-12-[(1-oxo-1λ^4-thiomorpholin-4-yl)methyl]-8-oxa-3,5,10-triazatricyclo[7.4.0.0^2,^7]trideca-1(13),2(7),3,5,9,11-hexaen-4-yl]-1H-indole-5-carboxylic acid], the pKi on PI3K p110δ [5], at PI3K p110α [6], on PI3K p110β [7] and on PI3K p110γ [8] was under 5.00 in each case.
With `CC(C)Oc1ccc2[nH]ccc2c1-c1nc(N2CCOCC2)c2oc3ncc(CN4CC[S+]([O-])CC4)cc3c2n1` [Example Y, 4-{[6-(Morpholin-4-yl)-4-[5-(propan-2-yloxy)-1H-indol-4-yl]-8-oxa-3,5,10-triazatricyclo[7.4.0.0^2^,7]trideca-1(9),2,4,6,10,12-hexaen-12-yl]methyl}-1λ^4-thiomorpholin-1-one], the pKi was at least 6.30 at PI3K p110δ [5], 6.00 to 6.30 on PI3K p110α [6], at least 6.30 at PI3K p110β [7] and 5.00 to 6.00 at PI3K p110γ [8].
`[O-][S+]1CCN(Cc2cnc3oc4c(N5CCOCC5)nc(-c5c(OC(F)(F)F)ccc6[nH]ccc56)nc4c3c2)CC1` [Example Z, 4-{[6-(Morpholin-4-yl)-4-[5-(trifluoromethoxy)-1H-indol-4-yl]-8-oxa-3,5,10-triazatricyclo[7.4.0.0^2^,7]trideca-1(9),2,4,6,10,12-hexaen-12-yl]methyl}-1λ^4-thiomorpholin-1-one]: the negative-log Ki (pKi) on PI3K p110δ [5] is at least 6.30; at PI3K p110α [6], at least 6.30; on PI3K p110β [7], at least 6.30; at PI3K p110γ [8] it was 6.00 to 6.30.
In [10] (setting [11]), `c1cc(-c2nc(N3CCOCC3)c3oc4ncc(CN5CCOCC5)cc4c3n2)c2cc[nH]c2c1` [compound K in WO 2011/021038] showed an AUC(0-inf) of 2.69 µg·h/mL, an AUClast of 2654.15 ng·mL·h, a Cmax of 2.98 µg/mL and a clearance of 1.12 L/h/kg. In addition, the half-life in [10] (setting [11]) was 79.8 min. For the same compound, in data set [10] (setting [12]), the Vd turned out to be 1.81 L/kg. The same compound displayed a F in data set [10] of 55%. The same compound returned a F in data set [10] (listed as Example K from W02011/021038 (comparative)) of 50%. In addition, in data set [10] (setting [13]), the AUC(0-inf) was determined as 5.14 µg·h/mL, the AUC(0-t) amounted to 4.89 µg·h/mL, the Cmax amounted to 1.72 µg/mL and the Tmax was 15 min.
